# According to patent US9199200B2, “Submerged membrane bioreactor system and biological methods for removing bisphenol compounds from municipal wastewater” (Centre de Recherche Industrielle de Québec (CRIQ), priority 2010, dated 2015):
# Columns and labels:
# [1] = Thermodynamic parameters of BPA adsorption on inactivated sludge; assay type: physicochemical
# Experimental: The third set of assays consisted of evaluating the thermodynamic parameters such as Gibbs free energy)(ΔG^0), enthalpy)(ΔH^0 and entropy)(ΔS^0 changes, which parameters allowed to determine whether BPA sorption on sludge was due to physisorption or chemisorption phenomenon or the combination of both phenomena. For that, Erlenmeyer flasks containing 200 mL of inactivated sludge at 15 g TSS L^−1 and 5 mgL^−1 of BPA are used. Mixing is achieved at 150 rpm and different temperatures (22±2, 30±2 and 40±2° C.) are respectively imposed for 2 h of experiment time.
# In order to calculate whether the adsorption process is spontaneous or not, thermodynamics parameters including standard Gibbs free energy of adsorption (ΔadG^0), standard enthalpy of adsorption (ΔadH^0) and standard entropy change of) adsorption (ΔadS^0) have been considered. ΔadG^0 is calculated using the following equation (Eq. (22)): ΔadG^0=−RT ln Kd (22)
# T is the temperature (K), and KD is the specific adsorption coefficient (equilibrium distribution coefficient). Relation between ΔadG^0, ΔH^0 and ΔadS^0 is expressed by the following equation (Eq. (23)): ΔadG^0=ΔadH^0−TΔadS^0 (23)
# wherein ΔadH^0, ΔadS^0 are calculated from the slope and intercept of the plot of ln KD versus 1/T, respectively.
# The adsorption tests are conducted at different temperatures ranging from 293 K to 313 K. At each temperature, the corresponding KD at fixed initial concentration of BPA is calculated and the corresponding Gibbs free energy change is deducted according to Eq. (22).
# [2] = Equilibrium adsorption isotherms of BPA on inactivated sludge (Freundlich, Langmuir); assay type: physicochemical
# Experimental: To elucidate the plausible mechanisms of the biological removal of the bisphenol compounds, the removal of BPA was tested (adsorption on the biomass versus biological oxidation), and additional experiments are carried out in Erlenmeyer shake flasks containing either activated sludge or inactivated sludge in the presence of BPA. The sludge used for the tests is withdrawn from the SMBR unit. Prior to BPA addition in activated sludge sample, sludge is initially centrifuged at 8000 rpm at 4° C. for 10 min and softly washed. The inactivated sludge is prepared by subjecting sludge samples to a sterilization by adding 1.0 mL HgSO4 (20 g/L) to 200 mL of sludge. Then, the sterilized and centrifuged sample sludge is placed in conical flasks and shaken at 150 rpm at 22±2° C. for 2 h, and then centrifuged at 8000 rpm at 4° C. for 10 min. Different concentrations of BPA (0.45 to 18.2 mg/L) are added in the same mass of sludge (3.0 g of sludge diluted to 200 mL with milli-Q water). The concentration of total suspended solid (sludge) in the flask was 15 g TSS L^−1, which is similar to that observed in the SMBR system of the present invention. Three types of experiments are successively carried out. The first set tests consists in evaluating the adsorption capacity of BPA on sludge. For that, two Erlenmeyer shake flasks containing 200 mL of activated sludge (15 g TSS L^−1) are respectively contaminated by 5 and 10 mg/L of BPA. The flasks are shaken at 150 rpm at 22±2° C., pH=7±0.5 for 24 h and samples are taken in regular time intervals, and the amount of BPA adsorbed is determined by measuring the residual BPA concentrations in solution The same assay is carried out using inactivated sludge. Subsequently, isotherm adsorption experiments are carried out using different concentrations of BPA (0.45-18.2 mg/L) spiked in a same mass of sludge (200 ml of inactivated sludge at 15 g TSS/L). The flasks are shaken at 150 rpm for 2 h and samples are taken for analysis.
# By analogy, the amount of BPA adsorbed on sludge at equilibrium (qe, mg/g) and the sorption efficiency is determined according to equations (1) described above. The specific adsorption coefficient (KD) can also be calculated. The coefficient KD is the ratio between the amount of BPA adsorbed on sludge at equilibrium (qe) and the residual (Ce) concentrations, according to the following equation (Eq. (3)): […]
# Thermodynamic equilibrium constants are determined in order to evaluate adsorption affinity of BPA on sludge. The amount of BPA adsorbed on sludge is calculated using the following equation (Eq. (10)): […]
# Adsorption isotherms allow presenting the variation of sorption with respect to the concentration of sorbate in the bulk solution at constant temperature. Equilibrium adsorptions of BPA on the biomass using Freundlich and Langmuir models are studied. These isotherms describe BPA uptake per unit weight of sorbent (qe) in function of the equilibrium sorbate concentration in the bulk solution (Ce). The Freundlich isotherm is described by the following equation (Eq. (11)) and is illustrated in FIG. 12: […]
# The Langmuir isotherm is described by the following equation (Eq. (12)) and is represented in FIG. 13: […]
# In fact, Langmuir adsorption isotherm is valid for monolayer sorption on a surface containing a limited number of sites, predicting a homogenous distribution of sorption energy. The reorganization of Eq. (12) leads to the following equation (Eq. (13)) as the linearised form of the Langmuir isotherm: […]
# From Langmuir isotherm, it is possible to define a dimensionless constant (RL) taking into account the separation factor of equilibrium parameter. This dimensionless constant allows predicting if the adsorption system is favorable or not, as explained in Shokoohi et al. as cited above and by Gao et al. Journal of Fluorine Chemistry 130 (2009) 1035-1041. RL can be evaluated using the following equation (Eq. (14)): […]
smiles,measurement,setting,value
"CC(C)(c1ccc(O)cc1)c1ccc(O)cc1 [BPA, 2,2-Bis(4-hydroxyphenyl)propane]",ΔadH^0,[1]; 293-313 K,−82.121 KJmol^−1
same,ΔadS^0,[1]; 293-313 K,−0.257 KJmol^−1K^−1
same,ΔadG^0,[1]; 293 K,-1.72 kcal/mol
same,ΔadG^0,[1]; 303 K,-0.7216 kcal/mol
same,ΔadG^0,[1]; 313 K,-0.5067 kcal/mol
same,Freundlich parameter shown as formula MATH:00015,[2],0.819
same,KL (Langmuir constant),[2],0.370 L/g
same,"RL (dimensionless separation factor, Langmuir)",[2],0.11
same,b (Langmuir constant),[2],0.444 L/mg
same,kf (Freundlich isotherm constant),[2],0.231 mg^1-1/n g^−1 · L^1/n
same,"n (Freundlich constant, adsorption intensity)",[2],1.22
same,"qm, maximum BPA concentration capable of being adsorbed on sludge (Langmuir, KL/b)",[2],0.833 mg/g
same,Adsorbed fraction,[2]; C0 0.45 mg/L,84.4%
same,Equilibrium liquid phase concentration of BPA (Ce),[2]; C0 0.45 mg/L,0.07 mg/L
same,Adsorbed fraction,[2]; C0 0.91 mg/L,85.7%
same,Equilibrium liquid phase concentration of BPA (Ce),[2]; C0 0.91 mg/L,0.13 mg/L
same,Adsorbed fraction,[2]; C0 1.82 mg/L,78.6%
same,Equilibrium liquid phase concentration of BPA (Ce),[2]; C0 1.82 mg/L,0.39 mg/L
same,Adsorbed fraction,[2]; C0 4.74 mg/L,77.0%
same,Equilibrium liquid phase concentration of BPA (Ce),[2]; C0 4.74 mg/L,1.09 mg/L
same,Adsorbed fraction,[2]; C0 9.47 mg/L,76.0%
same,Equilibrium liquid phase concentration of BPA (Ce),[2]; C0 9.47 mg/L,2.27 mg/L
same,Adsorbed fraction,[2]; C0 13.67 mg/L,74.8%
same,Equilibrium liquid phase concentration of BPA (Ce),[2]; C0 13.67 mg/L,3.45 mg/L
same,Adsorbed fraction,[2]; C0 18.22 mg/L,70.5%
same,Equilibrium liquid phase concentration of BPA (Ce),[2]; C0 18.22 mg/L,5.37 mg/L
same,Adsorption removal of BPA on sludge,"[2]; of initial liquid phase concentration, 0.45-18.2 mg/L",70.5 to 85.7%
